Measurements taken from PMC6979384, “Characterization of the plant homeodomain (PHD) reader family for their histone tail interactions” (Epigenetics & Chromatin, 2020).

Key:
Experiment in all cases: Histone peptide microarray
Format in all cases: binding, human
BPTF (PB) = conditions: GST-tagged BPTF (PB = PHD + Bromodomain); for Array Heatmap signal (histone peptide microarray): sheet Array Heatmap, each array performed twice, total n = 4
Outline: (§1)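 A peptide microarray holding 293 synthetic histone peptides with individual or combinatorial modifications was probed with each GST-PHD protein at 0.5 μM. Values represent mean intensity (±SD) from four replicates.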

CHD5 (PPCC) = conditions: GST-tagged CHD5 (PPCC = Dual PHD + Dual Chromodomain); for Array Heatmap signal (histone peptide microarray): sheet Array Heatmap, each array performed twice, total n = 4
Outline: as §1

PHF8 = conditions: GST-tagged PHF8; for Array Heatmap signal (histone peptide microarray): sheet Array Heatmap, each array performed twice, total n = 4
Outline: as §1

RAG2 = conditions: GST-tagged RAG2; for Array Heatmap signal (histone peptide microarray): sheet Array Heatmap, each array performed twice, total n = 4
Outline: as §1

PHRF1 (RP) = conditions: GST-tagged PHRF1 (RP); for Array Heatmap signal (histone peptide microarray): sheet Array Heatmap, each array performed twice, total n = 4
Outline: as §1

ING5 = conditions: GST-tagged ING5; for Array Heatmap signal (histone peptide microarray): sheet Array Heatmap, each array performed twice, total n = 4
Outline: as §1

KDM5B (1) = conditions: GST-tagged KDM5B (1); for Array Heatmap signal (histone peptide microarray): sheet Array Heatmap, each array performed twice, total n = 4
Outline: as §1

MORC3 (CW) = conditions: GST-tagged MORC3 (CW = CW-type Zn-finger); for Array Heatmap signal (histone peptide microarray): sheet Array Heatmap, each array performed twice, total n = 4
Outline: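 GST-tagged PHD readers, 0.5 μM, probed on a microarray of 293 synthetic histone peptides carrying single or combinatorial PTMs (optimized Petell protocol). Signals are averaged over 4 replicates and expressed as relative binding.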

KDM5A (1) = conditions: GST-tagged KDM5A (1); for Array Heatmap signal (histone peptide microarray): sheet Array Heatmap, each array performed twice, total n = 4
Outline: as §1

PHF2 = conditions: GST-tagged PHF2; for Array Heatmap signal (histone peptide microarray): sheet Array Heatmap, each array performed twice, total n = 4
Outline: as §1

ING3 = conditions: GST-tagged ING3; for Array Heatmap signal (histone peptide microarray): sheet Array Heatmap, each array performed twice, total n = 4
Outline: as §1

ING1 = conditions: GST-tagged ING1; for Array Heatmap signal (histone peptide microarray): sheet Array Heatmap, each array performed twice, total n = 4
Outline: as §1

PHF13 = conditions: GST-tagged PHF13; for Array Heatmap signal (histone peptide microarray): sheet Array Heatmap, each array performed twice, total n = 4
Outline: as §1

DPF2 (PPC2W2) = conditions: GST-tagged DPF2 (PPC2W2 = Dual PHD + C2W2-type Zn-finger); for Array Heatmap signal (histone peptide microarray): sheet Array Heatmap, each array performed twice, total n = 4
Outline: as §1

KDM5B (3) = conditions: GST-tagged KDM5B (3); for Array Heatmap signal (histone peptide microarray): sheet Array Heatmap, each array performed twice, total n = 4
Outline: as §1

ING4 = conditions: GST-tagged ING4; for Array Heatmap signal (histone peptide microarray): sheet Array Heatmap, each array performed twice, total n = 4
Outline: as §1

PHF21A = conditions: GST-tagged PHF21A; for Array Heatmap signal (histone peptide microarray): sheet Array Heatmap, each array performed twice, total n = 4
Outline: as §1

AIRE (PP) = conditions: GST-tagged AIRE (PP); for Array Heatmap signal (histone peptide microarray): sheet Array Heatmap, each array performed twice, total n = 4
Outline: as §1

CHD4 (PPCC) = conditions: GST-tagged CHD4 (PPCC = Dual PHD + Dual Chromodomain); for Array Heatmap signal (histone peptide microarray): sheet Array Heatmap, each array performed twice, total n = 4
Outline: as §1

BAZ2B = conditions: GST-tagged BAZ2B; for Array Heatmap signal (histone peptide microarray): sheet Array Heatmap, each array performed twice, total n = 4
Outline: as §1

KDM4C (TTP) = conditions: GST-tagged KDM4C (TTP = Tandem Tudor domain + PHD); for Array Heatmap signal (histone peptide microarray): sheet Array Heatmap, each array performed twice, total n = 4
Outline: as §1

DIDO1 = conditions: GST-tagged DIDO1; for Array Heatmap signal (histone peptide microarray): sheet Array Heatmap, each array performed twice, total n = 4
Outline: as §1

TRIM66 (PB) = conditions: GST-tagged TRIM66 (PB = PHD + Bromodomain); for Array Heatmap signal (histone peptide microarray): sheet Array Heatmap, each array performed twice, total n = 4
Outline: as §1

KDM7A = conditions: GST-tagged KDM7A; for Array Heatmap signal (histone peptide microarray): sheet Array Heatmap, each array performed twice, total n = 4
Outline: as §1

MLL5 = conditions: GST-tagged MLL5; for Array Heatmap signal (histone peptide microarray): sheet Array Heatmap, each array performed twice, total n = 4
Outline: as §1

TAF3 = conditions: GST-tagged TAF3; for Array Heatmap signal (histone peptide microarray): sheet Array Heatmap, each array performed twice, total n = 4
Outline: as §1

SP140L = conditions: GST-tagged SP140L; for Array Heatmap signal (histone peptide microarray): sheet Array Heatmap, each array performed twice, total n = 4
Outline: as §1

PHF23 = conditions: GST-tagged PHF23; for Array Heatmap signal (histone peptide microarray): sheet Array Heatmap, each array performed twice, total n = 4
Outline: as §1

KDM5A (3) = conditions: GST-tagged KDM5A (3); for Array Heatmap signal (histone peptide microarray): sheet Array Heatmap, each array performed twice, total n = 4
Outline: as §1

CHD5 (PCC) = conditions: GST-tagged CHD5 (PCC = PHD + Dual Chromodomain); for Array Heatmap signal (histone peptide microarray): sheet Array Heatmap, each array performed twice, total n = 4
Outline: as §1

ING2 = conditions: GST-tagged ING2; for Array Heatmap signal (histone peptide microarray): sheet Array Heatmap, each array performed twice, total n = 4
Outline: as §1

[1] = histone peptide array, arrays performed twice, n of 4

## H3R2me2a + T3p + K4me3: H3 1-20
BPTF (PB)
  Array Heatmap signal (histone peptide microarray): 0.3598
CHD5 (PPCC)
  Array Heatmap signal (histone peptide microarray): 0.5403
PHF8
  Array Heatmap signal (histone peptide microarray): 0.3942
RAG2
  Array Heatmap signal (histone peptide microarray): 0.2527
PHRF1 (RP)
  Array Heatmap signal (histone peptide microarray): 0.4955
ING5
  Array Heatmap signal (histone peptide microarray): 0.3525
KDM5B (1)
  Array Heatmap signal (histone peptide microarray): 0.6049
MORC3 (CW)
  Array Heatmap signal (histone peptide microarray): 0.479
KDM5A (1)
  Array Heatmap signal (histone peptide microarray): 0.4435
PHF2
  Array Heatmap signal (histone peptide microarray): 0.6351
ING3
  Array Heatmap signal (histone peptide microarray): 0.4974
ING1
  Array Heatmap signal (histone peptide microarray): 0.5674
PHF13
  Array Heatmap signal (histone peptide microarray): 0.6175
DPF2 (PPC2W2)
  Array Heatmap signal (histone peptide microarray): 0.687
KDM5B (3)
  Array Heatmap signal (histone peptide microarray): 0.5351
ING4
  Array Heatmap signal (histone peptide microarray): 0.4572
PHF21A
  Array Heatmap signal (histone peptide microarray): 0.4298
AIRE (PP)
  Array Heatmap signal (histone peptide microarray): 0.4234
CHD4 (PPCC)
  Array Heatmap signal (histone peptide microarray): 0.6044
BAZ2B
  Array Heatmap signal (histone peptide microarray): 0.443
KDM4C (TTP)
  Array Heatmap signal (histone peptide microarray): 0.4695
DIDO1
  Array Heatmap signal (histone peptide microarray): 0.7496
TRIM66 (PB)
  Array Heatmap signal (histone peptide microarray): 0.6445
KDM7A
  Array Heatmap signal (histone peptide microarray): 0.3305
MLL5
  Array Heatmap signal (histone peptide microarray): 0.5468
TAF3
  Array Heatmap signal (histone peptide microarray): 0.272
SP140L
  Array Heatmap signal (histone peptide microarray): 0.3541
PHF23
  Array Heatmap signal (histone peptide microarray): 0.5238
KDM5A (3)
  Array Heatmap signal (histone peptide microarray): 0.5129
CHD5 (PCC)
  Array Heatmap signal (histone peptide microarray): 0.7634
ING2
  Array Heatmap signal (histone peptide microarray): 0.5913

## H3R2me2a: H3 1-20 [Peptide H3R2me2a]
BPTF (PB)
  Array Heatmap signal (histone peptide microarray): 0.3326
CHD5 (PPCC)
  Array Heatmap signal (histone peptide microarray): 0.5177
PHF8
  Array Heatmap signal (histone peptide microarray): 0.3491
RAG2
  Array Heatmap signal (histone peptide microarray): 0.2465
PHRF1 (RP)
  Array Heatmap signal (histone peptide microarray): 0.516
ING5
  Array Heatmap signal (histone peptide microarray): 0.3271
KDM5B (1)
  Array Heatmap signal (histone peptide microarray): 0.5237
MORC3 (CW)
  Array Heatmap signal (histone peptide microarray): 0.4345
KDM5A (1)
  Array Heatmap signal (histone peptide microarray): 0.4227
PHF2
  Array Heatmap signal (histone peptide microarray): 0.5486
ING3
  Array Heatmap signal (histone peptide microarray): 0.4743
ING1
  Array Heatmap signal (histone peptide microarray): 0.5498
PHF13
  Array Heatmap signal (histone peptide microarray): 0.5929
DPF2 (PPC2W2)
  Array Heatmap signal (histone peptide microarray): 0.6507
KDM5B (3)
  Array Heatmap signal (histone peptide microarray): 0.4682
ING4
  Array Heatmap signal (histone peptide microarray): 0.442
PHF21A
  Array Heatmap signal (histone peptide microarray): 0.4684
AIRE (PP)
  Array Heatmap signal (histone peptide microarray): 0.3953
CHD4 (PPCC)
  Array Heatmap signal (histone peptide microarray): 0.6459
BAZ2B
  Array Heatmap signal (histone peptide microarray): 0.4186
KDM4C (TTP)
  Array Heatmap signal (histone peptide microarray): 0.4374
DIDO1
  Array Heatmap signal (histone peptide microarray): 0.6992
TRIM66 (PB)
  Array Heatmap signal (histone peptide microarray): 0.568
KDM7A
  Array Heatmap signal (histone peptide microarray): 0.3073
MLL5
  Array Heatmap signal (histone peptide microarray): 0.5223
TAF3
  Array Heatmap signal (histone peptide microarray): 0.2736
SP140L
  Array Heatmap signal (histone peptide microarray): 0.3569
PHF23
  Array Heatmap signal (histone peptide microarray): 0.5039
KDM5A (3)
  Array Heatmap signal (histone peptide microarray): 0.4981
CHD5 (PCC)
  Array Heatmap signal (histone peptide microarray): 0.7924
ING2
  Array Heatmap signal (histone peptide microarray): 0.6004

## H3R2me2s + K4me2: H3 1-20
BPTF (PB); [1]
  Array Heatmap signal, BPTF (PB): 0.3673
CHD5 (PPCC); [1]
  Array Heatmap signal, CHD5 (PPCC): 0.5636
PHF8; [1]
  Array Heatmap signal, PHF8: 0.5813
RAG2; [1]
  Array Heatmap signal, RAG2: 0.4992
PHRF1 (RP); [1]
  Array Heatmap signal, PHRF1 (RP): 0.4714
ING5; [1]
  Array Heatmap signal, ING5: 0.3606
KDM5B (1); [1]
  Array Heatmap signal, KDM5B (1): 0.7544
MORC3 (CW); [1]
  Array Heatmap signal, MORC3 (CW): 0.7987
KDM5A (1); [1]
  Array Heatmap signal, KDM5A (1): 0.4761
PHF2; [1]
  Array Heatmap signal, PHF2: 0.597
ING3; [1]
  Array Heatmap signal, ING3: 0.5515
ING1; [1]
  Array Heatmap signal, ING1: 0.5374
PHF13; [1]
  Array Heatmap signal, PHF13: 0.6897
DPF2 (PPC2W2); [1]
  Array Heatmap signal, DPF2 (PPC2W2): 0.6255
KDM5B (3); [1]
  Array Heatmap signal, KDM5B (3): 0.725
ING4; [1]
  Array Heatmap signal, ING4: 0.4666
PHF21A; [1]
  Array Heatmap signal, PHF21A: 0.4639
AIRE (PP); [1]
  Array Heatmap signal, AIRE (PP): 0.4691
CHD4 (PPCC); [1]
  Array Heatmap signal, CHD4 (PPCC): 0.5835
BAZ2B; [1]
  Array Heatmap signal, BAZ2B: 0.454
KDM4C (TTP); [1]
  Array Heatmap signal, KDM4C (TTP): 0.5629
DIDO1; [1]
  Array Heatmap signal, DIDO1: 0.7352
TRIM66 (PB); [1]
  Array Heatmap signal, TRIM66 (PB): 0.6465
KDM7A; [1]
  Array Heatmap signal, KDM7A: 0.4256
MLL5; [1]
  Array Heatmap signal, MLL5: 0.5794
TAF3; [1]
  Array Heatmap signal, TAF3: 0.4
SP140L; [1]
  Array Heatmap signal, SP140L: 0.3393
PHF23; [1]
  Array Heatmap signal, PHF23: 0.6298
KDM5A (3); [1]
  Array Heatmap signal, KDM5A (3): 0.7167
CHD5 (PCC); [1]
  Array Heatmap signal, CHD5 (PCC): 0.8074
ING2; [1]
  Array Heatmap signal, ING2: 0.6563
